According to US8063071B2 (GlaxoSmithKline, LLC, priority 2007, dated 2011):
Counter-ions that a name gives are not always drawn.

Key:
[1] = target: T1, Recombinant human IKKβ (residues 1-737) (Homo sapiens, UniProt O14920); experiment: IKK2 assay (TR-FRET); type: biochemical; conditions: ATP 1 μM final, read-out: pIC50 against IKK2 (converted)
T1 construct: Recombinant human IKKβ (residues 1-737); GST (C); made in house
T1 sequence (O14920 1-737): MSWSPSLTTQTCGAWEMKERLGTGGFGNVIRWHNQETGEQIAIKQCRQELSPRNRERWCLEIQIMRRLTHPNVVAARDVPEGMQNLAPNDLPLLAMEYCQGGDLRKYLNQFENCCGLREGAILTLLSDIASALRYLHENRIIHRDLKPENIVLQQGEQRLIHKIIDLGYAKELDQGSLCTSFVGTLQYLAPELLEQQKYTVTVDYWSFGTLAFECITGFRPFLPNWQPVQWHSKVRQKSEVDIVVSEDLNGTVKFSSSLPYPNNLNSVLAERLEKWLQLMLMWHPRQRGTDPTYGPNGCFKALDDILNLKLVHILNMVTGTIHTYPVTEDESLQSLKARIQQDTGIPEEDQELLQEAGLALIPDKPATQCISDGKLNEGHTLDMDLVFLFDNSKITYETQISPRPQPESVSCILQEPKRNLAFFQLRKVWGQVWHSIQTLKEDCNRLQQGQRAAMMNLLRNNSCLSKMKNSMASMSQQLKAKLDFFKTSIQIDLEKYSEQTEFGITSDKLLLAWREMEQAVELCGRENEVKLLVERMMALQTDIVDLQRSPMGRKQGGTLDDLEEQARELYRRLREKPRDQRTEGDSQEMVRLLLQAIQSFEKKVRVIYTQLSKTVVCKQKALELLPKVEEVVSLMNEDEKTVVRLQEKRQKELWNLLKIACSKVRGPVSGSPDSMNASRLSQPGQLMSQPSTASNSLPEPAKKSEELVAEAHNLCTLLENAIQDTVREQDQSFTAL
Summary of the method: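 Baculovirus-expressed C-terminal GST-tagged IKKβ (0.5-5 nM final) in HEPES pH 7.4, MgCl2, CHAPS, DTT, BSA with 1.7% DMSO; 25 nM GST-IB substrate and 1 μM ATP, 15 min at room temperature. EDTA stop; phospho-Ser32/36 detected by Eu-antibody/APC-anti-GST TR-FRET, 665/620 nm ratio.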

[2] = test system: human monocyte stimulated cytokine production (TNF-α); experiment: Monocyte assay (LPS-stimulated TNF-α production); type: cell-based; conditions: for IC50: 24 h, 200 ng/mL LPS, TNF-α by ELISA; for inhibition at 0.3 µM: read-out: inhibition at 300 nM in the monocyte assay
Summary of the method: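 Human CD14+ monocytes were purified from blood and plated at 1×10^6 cells/mL in RPMI 1640 with 10% FBS. Compound was added 30 min before stimulation with 200 ng/mL LPS (0.1% DMSO final), followed by 24 hrs at 37 C. Supernatant TNF-α was measured by ELISA, and viability by trypan blue exclusion.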

SMILES | IC50 [1] | IC50 [2] | inhibition at 0.3 µM [2]
CCCNCc1ccc(-c2cc(C(N)=O)c3[nH]cc(C4CCN(S(=O)(=O)CC)CC4)c3c2)s1 [Example 241, 3-[1-(ethylsulfonyl)-4-piperidinyl]-5-{5-[(propylamino)methyl]-2-thienyl}-1H-indole-7-carboxamide trifluoroacetate] | ≤ 10 µM | ≤ 1.5 µM | –
CCC(C)CNCc1cccc(-c2cc(C(N)=O)c3[nH]cc(C4CCN(S(=O)(=O)CC)CC4)c3c2)c1 (stereo not shown) [Example 309, 3-[1-(ethylsulfonyl)-4-piperidinyl]-5-(3-{[(2-methylbutyl)amino]methyl}phenyl)-1H-indole-7-carboxamide] | ≤ 10 µM | ≤ 1.5 µM | –
CCS(=O)(=O)N1CCC(c2c[nH]c3c(C(N)=O)cc(-c4cc(CN(C)C)cs4)cc23)CC1 [Example 211, 5-{4-[(dimethylamino)methyl]-2-thienyl}-3-[1-(ethylsulfonyl)-4-piperidinyl]-1H-indole-7-carboxamide trifluoroacetate] | ≤ 10 µM | ≤ 1.5 µM | –
CCS(=O)(=O)N1CCC(c2c[nH]c3c(C(N)=O)cc(-c4cc(CNCCCOC)ccc4F)cc23)CC1 [Example 343, 3-[1-(ethylsulfonyl)-4-piperidinyl]-5-[2-fluoro-5-({[3-(methyloxy)propyl]amino}methyl)phenyl]-1H-indole-7-carboxamide trifluoroacetate] | ≤ 10 µM | ≤ 1.5 µM | –
CCCCCNCc1ccc(-c2cc(C(N)=O)c3[nH]cc(C4CCN(S(=O)(=O)CC)CC4)c3c2)s1 [Example 184, 3-[1-(ethylsulfonyl)-4-piperidinyl]-5-{5-[(pentylamino)methyl]-2-thienyl}-1H-indole-7-carboxamide] | ≤ 10 µM | – | 0 to 60%
CCS(=O)(=O)N1CCC(c2c[nH]c3c(C(N)=O)cc(-c4csc(CN(C)C(CO)CO)c4)cc23)CC1 [Example 432, 3-[1-(ethylsulfonyl)-4-piperidinyl]-5-(5-{[[2-hydroxy-1-(hydroxymethyl)ethyl](methyl)amino]methyl}-3-thienyl)-1H-indole-7-carboxamide] | ≤ 10 µM | ≤ 1.5 µM | –
CCS(=O)(=O)N1CCC(c2c[nH]c3c(C(N)=O)cc(-c4cccc(CN(C)CCN(C)C)c4)cc23)CC1 [Example 5, 5-(3-{[[2-(dimethylamino)ethyl](methyl)amino]methyl}phenyl)-3-[1-(ethylsulfonyl)-4-piperidinyl]-1H-indole-7-carboxamide] | ≤ 10 µM | ≤ 1.5 µM | –
CCS(=O)(=O)N1CCC(c2c[nH]c3c(C(N)=O)cc(-c4csc(CN5CCCC5)c4)cc23)CC1 [Example 232, 3-[1-(ethylsulfonyl)-4-piperidinyl]-5-[5-(1-pyrrolidinylmethyl)-3-thienyl]-1H-indole-7-carboxamide trifluoroacetate] | ≤ 10 µM | ≤ 1.5 µM | –
CCS(=O)(=O)N1CCC(c2c[nH]c3c(C(N)=O)cc(-c4ccc(F)c(CNC5CCC5)c4)cc23)CC1 [Example 275, 5-{3-[(cyclobutylamino)methyl]-4-fluorophenyl}-3-[1-(ethylsulfonyl)-4-piperidinyl]-1H-indole-7-carboxamide trifluoroacetate] | ≤ 10 µM | ≤ 1.5 µM | –
CCS(=O)(=O)N1CCC(c2c[nH]c3c(C(N)=O)cc(-c4ccc(F)c(CNC(CO)CO)c4)cc23)CC1 [Example 272, 3-[1-(ethylsulfonyl)-4-piperidinyl]-5-[4-fluoro-3-({[2-hydroxy-1-(hydroxymethyl)ethyl]amino}methyl)phenyl]-1H-indole-7-carboxamide trifluoroacetate (salt)] | ≤ 10 µM | > 1 µM | –
CCS(=O)(=O)N1CCC(c2c[nH]c3c(C(N)=O)cc(-c4ccc(CNCC5CCCCC5)s4)cc23)CC1 [Example 195, 5-(5-{[(cyclohexylmethyl)amino]methyl}-2-thienyl)-3-[1-(ethylsulfonyl)-4-piperidinyl]-1H-indole-7-carboxamide] | ≤ 10 µM | – | 0 to 60%
CCS(=O)(=O)N1CCC(c2c[nH]c3c(C(N)=O)cc(-c4cnn(CCNC5CCC5)c4)cc23)CC1 [Example 257, 5-{1-[2-(cyclobutylamino)ethyl]-1H-pyrazol-4-yl}-3-[1-(ethylsulfonyl)-4-piperidinyl]-1H-indole-7-carboxamide trifluoroacetate] | ≤ 10 µM | > 1 µM | –
CCS(=O)(=O)N1CCC(c2c[nH]c3c(C(N)=O)cc(-c4csc(CN(C)CC(N)=O)c4)cc23)CC1 [Example 44, 5-(5-{[(2-amino-2-oxoethyl)(methyl)amino]methyl}-3-thienyl)-3-[1-(ethylsulfonyl)-4-piperidinyl]-1H-indole-7-carboxamide trifluoroacetate] | ≤ 10 µM | ≤ 1.5 µM | –
CCS(=O)(=O)N1CCC(c2c[nH]c3c(C(N)=O)cc(-c4cnn(CCNCCO)c4)cc23)CC1 [Example 255, 3-[1-(ethylsulfonyl)-4-piperidinyl]-5-(1-{2-[(2-hydroxyethyl)amino]ethyl}-1H-pyrazol-4-yl)-1H-indole-7-carboxamide trifluoroacetate] | ≤ 10 µM | > 1 µM | –
CCS(=O)(=O)N1CCC(c2c[nH]c3c(C(N)=O)cc(-c4csc(CN5CCC[C@H]5C(F)(F)F)c4)cc23)CC1 [Example 393, 3-[1-(ethylsulfonyl)-4-piperidinyl]-5-(5-{[(2S)-2-(trifluoromethyl)-1-pyrrolidinyl]methyl}-3-thienyl)-1H-indole-7-carboxamide trifluoroacetate] | ≤ 10 µM | > 1 µM | –
CCS(=O)(=O)N1CCC(c2c[nH]c3c(C(N)=O)cc(-c4cccc(CN[C@H]5CC[C@H](O)CC5)c4)cc23)CC1 [Example 20, 3-[1-(ethylsulfonyl)-4-piperidinyl]-5-(3-{[(trans-4-hydroxycyclohexyl)amino]methyl}phenyl)-1H-indole-7-carboxamide] | ≤ 10 µM | ≤ 1.5 µM | –
CC[C@H](C)CNCc1ccc(-c2cc(C(N)=O)c3[nH]cc(C4CCN(S(=O)(=O)CC)CC4)c3c2)s1 [Example 185, 3-[1-(ethylsulfonyl)-4-piperidinyl]-5-[5-({[(2S)-2-methylbutyl]amino}methyl)-2-thienyl]-1H-indole-7-carboxamide] | ≤ 10 µM | – | 0 to 60%
CCS(=O)(=O)N1CCC(c2c[nH]c3c(C(N)=O)cc(-c4csc(CNC5CCCC5)c4)cc23)CC1 [Example 114, 5-{5-[(cyclopentylamino)methyl]-3-thienyl}-3-[1-(ethylsulfonyl)-4-piperidinyl]-1H-indole-7-carboxamide trifluoroacetate] | ≤ 10 µM | ≤ 1.5 µM | –
CCS(=O)(=O)N1CCC(c2c[nH]c3c(C(N)=O)cc(-c4ccc(CNC(C)COC)s4)cc23)CC1 (stereo not shown) [Example 61, 3-[1-(ethylsulfonyl)-4-piperidinyl]-5-[5-({[1-methyl-2-(methyloxy)ethyl]amino}methyl)-2-thienyl]-1H-indole-7-carboxamide] | ≤ 10 µM | ≤ 1.5 µM | –
CCS(=O)(=O)N1CCC(c2c[nH]c3c(C(N)=O)cc(-c4ccc(CNC(=O)C5CCC5)cc4)cc23)CC1 [Example 159, 5-(4-{[(cyclobutylcarbonyl)amino]methyl}phenyl)-3-[1-(ethylsulfonyl)-4-piperidinyl]-1H-indole-7-carboxamide] | ≤ 10 µM | > 1 µM | –
